Measurements from US11065335B2, “Methods of treating leukemia using compositions containing bis(benzylthio)octanoic acid and ion pairs thereof” (Rafael Pharmaceuticals, Inc., priority 2007, dated 2021).
Counter-ions that a name gives are not always drawn. Values belong to the compound of their own block, whether it stands above or below them.

How the values were obtained:
[1] = CellTiter Glo cell viability assay, BXPC3 cells; conditions: human, BXPC3 Cell Viability
Description: (§1) Two types of human tumor cells were used in this investigation: BXPC3 human pancreatic cancer cells and A2780 human ovarian cancer cells. The BXPC3 cells were originally obtained from American Type Cell Culture (ATCC). The ovarian tumor cells were gifts from Roswell Park Cancer Institute, Buffalo, N.Y. All tumor cells were maintained at 37° C. in a humidified 5% CO2 atmosphere in T75 tissue culture flasks containing 20 mL of Roswell Park Memorial Institute (RPMI) 1640 containing 2 mM L-glutamine, 10% fetal bovine serum (FBS) and 1% penicillin and streptomycin (100 IU/mL penicillin and 100 μg/mL streptomycin). The tumor cells were split at a ratio of 1:5 every 4-5 days by trypsinization and resuspended in fresh medium in a new flask. Cells were harvested for experiments at 70-90% confluency.
(§2) CPI-613 (i.e., 6,8-bis(benzylthio)octanoic acid) stock solutions at concentrations of 8, 4, 2, 1.5 and 0.5 mM were prepared in the appropriate vehicles. The molar ratio of vehicle to CPI-613 was maintained at 8:1. The corresponding vehicle concentrations were 64, 32, 16, 12, and 4 mM respectively. A sixty-four mM aliquot of vehicle was dissolved in 10 mL of water. Next, 8 mM of CPI-613 was added and the mixture was stirred until a clear solution was obtained. […] A 5 μL aliquot of this stock solution was added to 95 μL of tumor cells in media. Upon dilution in the wells, the corresponding drug concentrations were 400, 200, 100, 75 and 25 μM respectively.
(§3) For the sodium salt and potassium salt form of CPI-613, 1 equivalent of CPI-613 solid was dissolved in water. Sixty-two mg of CPI-613 (0.00016 mol) was added to 10 mL of water, then 165 μL of 1M NaOH or KOH was added and stirred until a clear solution was obtained. This gave a 16 mM solution. The resulting 16 mM solution was then serially diluted, thereby providing 8 mM and 4 mM solutions of the CPI-613 salt form. For the ammonium salt, vehicle to drug ratio was maintained at 8:1 and the formulation was prepared using procedures analogous to those described above in Section 2 relating to preparation of CPI-613 formulations in different vehicles.
(§4) CPI-613 formulated in 1M triethanolamine (TEA) was used as an internal control during formulation screening. To prepare a 16 mM of working stock of CPI-613, 50 mg/mL of CPI-613 (128.66 mM of CPI-613 in 1M TEA) was diluted in complete cell culture media containing 10% FBS. That is, 310 μL of a 128.66 mM solution of CPI-613 in 1M TEA was added to 2.19 mL of cell culture media. This stock was further diluted serially in complete media to give 8 mM, 4 mM 2 mM, 1.5 mM and 0.5 mM working solutions. On the day of testing, 5 μL of this working solution was added to 95 μL of cell culture media (20 fold dilution) resulting final concentrations of 400, 200, 100, 75 and 25 μM CPI-613, respectively. The ratio of CPI-613 to TEA was maintained at 1:8 ratio at all times.
(§5) The cell viability of CPI-613 formulations formulated at a ratio of 1:8, CPI-613 to vehicle, was assessed by exposing the A2780 ovarian tumor cells and BXPC3 human pancreatic cancer cells to the following CPI-613 concentrations: 400 μM (3200 μM vehicle), 200 μM (1600 μM vehicle), 100 μM (800 μM vehicle), 75 μM (600 μM vehicle) and 25 μM (200 μM vehicle) The impact of corresponding vehicles at 3200, 1600 and 800 μM concentrations was also tested in tumor cells for cell viability. […] CPI-613 in TEA was used as an internal control. The tumor cells were treated for 24 hrs with the test article in serum-containing medium. After 24 hrs of treatment the number of viable tumor cells was determined.
(§6) The number of cells targeted for the study was 4×10^3 per well in 100 μL of medium. The actual number of cells were counted and seeded in the wells of a 96 well-plate. The cells were incubated for ˜24 hrs before addition of CPI-613.
(§7) For each cell line the concentrations of test articles or vehicles specified above was used.

[2] = system: A2780 ovarian tumor cells and BXPC3 human pancreatic cancer cells; experiment: CellTiter Glo cell viability assay, text statements not split by cell line; format: cell-based; conditions: for cell kill: 24 hrs
Description: Two types of human tumor cells were used in this investigation: BXPC3 human pancreatic cancer cells and A2780 human ovarian cancer cells. The BXPC3 cells were originally obtained from American Type Cell Culture (ATCC). […] The tumor cells were split at a ratio of 1:5 every 4-5 days by trypsinization and resuspended in fresh medium in a new flask. Cells were harvested for experiments at 70-90% confluency.
The corresponding vehicle concentrations were 64, 32, 16, 12, and 4 mM respectively. A sixty-four mM aliquot of vehicle was dissolved in 10 mL of water. […] A 5 μL aliquot of this stock solution was added to 95 μL of tumor cells in media. Upon dilution in the wells, the corresponding drug concentrations were 400, 200, 100, 75 and 25 μM respectively.
This gave a 16 mM solution.
This stock was further diluted serially in complete media to give 8 mM, 4 mM 2 mM, 1.5 mM and 0.5 mM working solutions.
The tumor cells were treated for 24 hrs with the test article in serum-containing medium. After 24 hrs of treatment the number of viable tumor cells was determined.
The number of cells targeted for the study was 4×10^3 per well in 100 μL of medium. The actual number of cells were counted and seeded in the wells of a 96 well-plate.
For each cell line the concentrations of test articles or vehicles specified above was used. Five μL of the working solution for each test article or vehicle was added to 95 μL of cell culture media. The corresponding final concentrations of test articles are 20 fold more diluted than the working solutions. […] Additionally, a set of wells was treated with cell culture medium in the absence of cells to obtain a value for background luminescence.
The number of viable cells was determined by using the CellTiter Glo® Assay. Specifically, reagents were mixed and allowed to come to room temperature according to instructions from Promega, Inc. (Madison, Wis.). Cell plates were removed from the cell culture incubator and left on the bench for 30 minutes until they reach room temperature. A one-hundred μL aliquot CellTiter Glo® reagent was added to each well with a 12-channel Eppendorf pipettor. The cells were lysed by shaking the plate for 2 minutes in a shaker. Then, the cells were kept at room temperature for 10 minutes to stabilize the luminescent signal. The luminescence was measured using the FLUOstar OPTIMA plate reader (BMG Labtech, Inc., Durham, N.C.).
Data from luminescence readings was copied onto EXCEL spreadsheets, and cell growth relative to untreated cells was calculated, using the following equation: […]
The calculated values were imported into SigmaPlot, v11. A Four-Parameter Logistic Curve of the “mean relative cell growth as a function of the concentrations of the test articles” was generated. The EC50 values were determined from the curves. The R-squared value provides an indication of the degree of fitness of data to the curve. For each experiment, the percentage of viable cells was be expressed as the mean of 9 replicates. The average was calculated by taking the mean±standard deviation of the three experiments.

[3] = CellTiter Glo cell viability assay, A2780 cells; conditions: human, A2780 Cell Viability
Description: as §1, §2, §3, §4, §5, §6, §7

[4] = Stability of the drug product by visual observation and HPLC; format: physicochemical; conditions: 50 mg/mL in 1M triethanolamine
Description: Bis-benzyl lipoate was provided in a concentrated form at a concentration of 50 mg/mL dissolved in 1M triethanolamine (TEA). The stability of the drug product was assessed by visual observation and by high-performance liquid chromatography (HPLC) assessment, performed at the beginning and the end of the study. […] The concentrated bis-benzyl lipoate solution was diluted to an appropriate concentration with 5% dextrose (D5W) to formulate 0.1, 1 and 10 mg/kg doses of bis-benzyl lipoate.

[5] = system: Human H-460 Non Small Cell Lung Carcinoma (NSCLC) xenograft; experiment: Anti-tumor activity in mice with Human H-460 NSCLC xenograft; format: in vivo
Description: A study to assess the dose and dosing schedule effects on the anti-tumor activity of bis-benzyl lipoate was undertaken. More specifically, the pharmaceutical formulations of bis-benzyl lipoate of Comparative Example 1, i.e., bis-benzyl lipoate dissolved in 1:1 Tween 80:ethanol and diluted with saline, were tested in mice with Human H-460 Non Small Cell Lung Carcinoma (NSCLC) xenograft. The pharmaceutical formulations were administered intraperitoneally (IP), given 1× or 3× weekly. Administration of bis-benzyl lipoate began when the average tumor size of the mice was ˜300 mm^3. There were originally eight treatment groups, with seven mice in each group, investigating three doses (0.1, 1 and 10 mg/kg) and two dosing schedules, as shown in Table 1 below.
Specifically, both subgroups of each treatment group were treated with the same dose of bis-benzyl lipoate as in the original protocol; however, one of the two subgroups was treated with a pharmaceutical formulation of bis-benzyl lipoate according to Comparative Example 1, i.e., bis-benzyl lipoate dissolved in 1:1 Tween 80:ethanol and diluted with saline, and the other subgroup was treated with a pharmaceutical formulation of bis-benzyl lipoate according to Example 1, i.e., dissolved in TEA and diluted with D5W. […]

[6] = system: BXPC3 human pancreatic cancer cells; experiment: CellTiter Glo cell viability assay, BXPC3 cells; conditions: Homo sapiens, BXPC-3, 24 h
Description: as §1, §2, §3, §4, §5, §6, §7

[7] = system: A2780 human ovarian cancer cells; experiment: CellTiter Glo cell viability assay, A2780 cells; conditions: Homo sapiens, A2780, 24 h
Description: as §1, §2, §3, §4, §5, §6, §7

Structure (SMILES): CCNCC [Diethylamine]
viability at 24 h, 800 μM ([1]; vehicle alone 800 μM): > 95% | viability at 24 h, 1600 μM ([1]; vehicle alone 1600 μM): 70 to 85% | viability at 24 h, 3200 μM ([1]; vehicle alone 3200 μM): < 70% | impact of vehicle on cancer cell killing ([2]; vehicle alone 3200 μM): did not show a significant impact on cancer cell killing | viability at 24 h, 800 μM ([3]; vehicle alone 800 μM): > 95% | viability at 24 h, 1600 μM ([3]; vehicle alone 1600 μM): > 95% | viability at 24 h, 3200 μM ([3]; vehicle alone 3200 μM): 85 to 95%

physical appearance (stability of the drug product, visual observation) ([4]; beginning and end of the study): did not change | purity by HPLC (stability of the drug product) ([4]; both at the beginning and the end of the study): > 99%
Structure (SMILES): O=C(O)CCCCC(CCSCc1ccccc1)SCc1ccccc1 (centres unmarked) [bis-benzyl lipoate, 6,8-bis(benzylthio)octanoic acid]
anti-tumor effects compared to vehicle treatment ([5]; Comparative Example 1 formulation (Tween 80/ethanol/saline), IP, 0.1, 1, 10 mg/kg, 1x or 3x weekly): did not induce any anti-tumor effects | H-460 tumor size versus 10 mg/kg in Comparative Example 1 formulation ([5]; Example 1 formulation (TEA/D5W), 0.1-10 mg/kg): may be smaller

Structure (SMILES): O=C(O)CCCCC(CCSCc1ccccc1)SCc1ccccc1 (centres unmarked) [CPI-613 ammonium salt]
viability at 25 µM ([6]; read-out: BXPC3 Cell Viability (ammonium salt formulations), CPI-613 25 μM, ratio 1:8): > 95% | viability at 75 µM ([6]; read-out: BXPC3 Cell Viability (ammonium salt formulations), CPI-613 75 μM, ratio 1:8): > 95% | viability at 100 µM ([6]; read-out: BXPC3 Cell Viability (ammonium salt formulations), CPI-613 100 μM, ratio 1:8): > 95% | viability at 200 µM ([6]; read-out: BXPC3 Cell Viability (ammonium salt formulations), CPI-613 200 μM, ratio 1:8): 30 to 70% | viability at 400 µM ([6]; read-out: BXPC3 Cell Viability (ammonium salt formulations), CPI-613 400 μM, ratio 1:8): < 10% | cell kill ([2]; ammonium salt formulation at 200 μM): 70-80% | cell kill ([2]; ammonium salt formulation at 400 μM): 100% | viability at 25 µM ([7]; read-out: A2780 Cell Viability (ammonium salt formulations), CPI-613 25 μM, ratio 1:8): > 95% | viability at 75 µM ([7]; read-out: A2780 Cell Viability (ammonium salt formulations), CPI-613 75 μM, ratio 1:8): > 95% | viability at 100 µM ([7]; read-out: A2780 Cell Viability (ammonium salt formulations), CPI-613 100 μM, ratio 1:8): 70 to 95% | viability at 200 µM ([7]; read-out: A2780 Cell Viability (ammonium salt formulations), CPI-613 200 μM, ratio 1:8): 10 to 30% | viability at 400 µM ([7]; read-out: A2780 Cell Viability (ammonium salt formulations), CPI-613 400 μM, ratio 1:8): < 10%
